Positions count from the first letter of the chain named. Read-outs that look alike come from different tables or passages of the source.
Assays:
mutant MGL = target: T1, mutant MGL (Homo sapiens, UniProt Q99685, L169S/L176S); assay: MGL ThermoFluor assay - mutant; assay type: binding
T1 sequence (Q99685 1-303 L169S/L176S): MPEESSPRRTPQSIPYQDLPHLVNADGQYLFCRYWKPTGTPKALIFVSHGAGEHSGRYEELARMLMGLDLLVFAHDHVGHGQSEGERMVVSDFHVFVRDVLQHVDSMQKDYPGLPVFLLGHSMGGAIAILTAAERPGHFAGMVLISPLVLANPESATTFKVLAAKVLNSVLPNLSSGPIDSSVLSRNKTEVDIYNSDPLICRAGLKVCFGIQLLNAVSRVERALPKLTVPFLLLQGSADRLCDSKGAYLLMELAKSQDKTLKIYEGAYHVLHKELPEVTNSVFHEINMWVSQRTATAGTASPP

[1] = target: T2, purified wild type MGL (wt-MGLL 6H-11-313) (Homo sapiens, UniProt Q99685)
T2 sequence (Q99685 1-303): T1 sequence (Q99685 1-303 L169S/L176S) with S169L, S176L

[2] = ThermoFluor thermal stability binding assay, read-out: MGL mutant ThermoFluor Kd
[3] = ThermoFluor, compound concentration measured by qNMR, read-out: MGL mutant ThermoFluor qKd (μM) (using qNMR conc.)
[4] = ThermoFluor, compound concentration measured by qNMR, read-out: MGL mutant ThermoFluor qKd (using qNMR conc.)
[5] = ThermoFluor concentration-response, read-out: MGL mutant ThermoFluor Kd
[6] = compound concentration measured by qNMR, read-out: MGL mutant ThermoFluor qKd (using qNMR conc.)

Row | Structure (SMILES) | IC50 [1] [nM] | also measured
1 | O=C(c1ccccc1)N1CCc2cccc(C(=O)N3CC(N4CCN(C(=O)c5nccs5)CC4)C3)c2C1 [Cpd 1437] | > 16700 | Kd (mutant MGL; [2]): 33.3 µM
2 | O=C(c1cscn1)N1CCN(C2CN(C(=O)c3cc4nc(C(F)(F)F)ccc4[nH]3)C2)CC1 [Cpd 1450] | > 16700 | Kd (mutant MGL; [3]): 12.6 µM
3 | O=C(c1cc(F)cc(-c2ccccc2)c1)N1CC(N2CCN(C(=O)c3cscn3)CC2)C1 [Cpd 1273] | 1610 | Kd (mutant MGL; [5]): 1.83 µM
4 | Cc1c(C(=O)N2CC(N3CCN(C(=O)c4cscn4)CC3)C2)oc2ccc(F)cc12 [Cpd 862] | 9510 | Kd (mutant MGL; [5]): > 21.9 µM
5 | O=C(c1ccccc1)N1CCN(C2CN(C(=O)c3ccc4c(ccn4-c4ccc(Cl)cn4)c3)C2)CC1 [Cpd 629, 1-(5-Chloropyridin-2-yl)-5-({3-[4-(phenylcarbonyl)piperazin-1-yl]azetidin-1-yl}carbonyl)-1H-indole] | 53 | Kd (mutant MGL; [5]): 0.145 µM
6 | O=C(c1ccccc1)N1CCN(C2CN(C(=O)c3sc4cc(C(F)(F)F)ccc4c3-c3ccccc3)C2)CC1 [Cpd 591] | 212 | Kd (mutant MGL; [2]): 0.007 µM
7 | O=C(c1ccc2c(c1)C(Cc1cccc(C(F)(F)F)c1)(Cc1cccc(C(F)(F)F)c1)C(=O)N2Cc1cccc(C(F)(F)F)c1)N1CC(N2CCN(C(=O)c3nccs3)CC2)C1 [Cpd 1430, 5-({3-[4-(1,3-Thiazol-2-ylcarbonyl)piperazin-1-yl]azetidin-1-yl}carbonyl)-1,3,3-tris[3-(trifluoromethyl)benzyl]-1,3-dihydro-2H-indol-2-one] | 9890 | Kd (mutant MGL; [5]): 50 µM
8 | O=C(c1sc2cc(C(F)(F)F)ccc2c1Cl)N1CC(N2CCN(C(=O)c3cscn3)C(C(F)(F)F)C2)C1 (stereo not shown) [Cpd 833] | 4560 | Kd (mutant MGL; [3]): 3.33 µM
9 | O=C(c1cccc(-c2ccc(C(F)(F)F)cc2)c1)N1CC(N2CCN(C(=O)c3cscn3)CC2)C1 [Cpd 1278] | 1860 | Kd (mutant MGL; [5]): 5.19 µM
10 | N#Cc1ccc(Cn2ncc3cc(C(=O)N4CC(N5CCN(C(=O)c6nccs6)CC5)C4)ccc32)cc1 [Cpd 1045, 4-{[5-({3-[4-(1,3-Thiazol-2-ylcarbonyl)piperazin-1-yl]azetidin-1-yl]carbonyl)-1H-indazol-1-yl}methyl}benzonitrile] | 21 | Kd (mutant MGL; [6]): 0.19 µM
11 | O=C(c1ccc(-c2ccccc2)cc1)N1CC(N2CCN(C(=O)c3c[nH]c4ccccc34)CC2)C1 [Cpd 1308] | 9280 | Kd (mutant MGL; [2]): 2.06 µM
12 | O=C(c1ccc(Oc2ccccn2)cc1)N1CC(N2CCN(C(=O)C(F)(F)F)CC2)C1 [Cpd 869] | 12900 | Kd (mutant MGL; [6]): 6.2 µM
13 | O=C(c1ccc2c(c1)ncn2-c1ccc(C(F)(F)F)cc1)N1CC(N2CCN(C(=O)c3cscn3)CC2)C1 [Cpd 1231] | 316 | Kd (mutant MGL; [6]): 0.131 µM
14 | O=C(c1ccc2c(ccn2-c2ccccn2)c1)N1CC(N2CCN(C(=O)c3ccc[nH]3)CC2)C1 [Cpd 1189, 1-Pyridin-2-yl-5-({3-[4-(1H-pyrrol-2-ylcarbonyl)piperazin-1-yl]azetidin-1-yl}carbonyl)-1H-indole] | 97 | Kd (mutant MGL; [4]): 0.153 µM
15 | Cc1cc(-n2ccc3cc(C(=O)N4CC(N5CCN(C(=O)c6ccccc6)CC5)C4)ccc32)ccc1C#N [Cpd 566, 2-Methyl-4-[5-({3-[4-(phenylcarbonyl)piperazin-1-yl]azetidin-1-yl}carbonyl)-1H-indol-1-yl]benzonitrile] | 14 | Kd (mutant MGL; [3]): 0.031 µM
16 | O=C(c1nccs1)N1CCN(C2CN(C(=O)c3sc4cc(C(F)(F)F)ccc4c3Cl)C2)C(C(F)(F)F)C1 (stereo not shown) [Cpd 778, 1-(1-{[3-Chloro-6-(trifluoromethyl)-1-benzothiophen-2-yl]carbonyl}azetidin-3-yl)-4-(1,3-thiazol-2-ylcarbonyl)-2-(trifluoromethyl)piperazine] | 933 | Kd (mutant MGL; [3]): 1.2 µM
17 | Cc1nc2cc(C(=O)N3CCN(C4CN(C(=O)c5nccs5)C4)CC3)ccc2n1C1CCCCC1 [Cpd 793] | 1460 | Kd (mutant MGL; [5]): 0.198 µM
18 | O=C(c1ccc2[nH]c(-c3ccccc3)nc2c1)N1CCN(C2CN(C(=O)c3ccccc3)C2)CC1 [Cpd 611] | 13300 | Kd (mutant MGL; [5]): 5.15 µM
19 | NC(=O)c1cccc(-n2ccc3cc(C(=O)N4CC(N5CCN(C(=O)c6ccccc6)CC5)C4)ccc32)c1 [Cpd 594, 3-[5-({3-[4-(Phenylcarbonyl)piperazin-1-yl]azetidin-1-yl}carbonyl)-1H-indol-1-yl]benzamide] | 449 | Kd (mutant MGL; [3]): 0.743 µM

Continued, in another order:

Row | IC50 [1] [nM] | Structure (SMILES) | also measured
20 | 4760 | CC(=O)NCCOc1ccc(C(=O)N2CC(N3CCN(C(=O)c4nccs4)CC3)C2)cc1 [Cpd 836] | Kd (mutant MGL; [4]): 2.25 µM
21 | 12100 | Cc1c(C(=O)N2CC(N3CCN(C(=O)c4nccs4)CC3)C2)nc2ccc(Br)cn12 [Cpd 868] | Kd (mutant MGL; [4]): > 23.1 µM
22 | 153 | Cc1nn(-c2ccc(F)cc2)c2ncc(C(=O)N3CC(N4CCN(C(=O)c5nccs5)CC4)C3)cc12 [Cpd 1203] | Kd (mutant MGL; [4]): 0.015 µM
23 | 1200 | Cc1cc(Br)ccc1C(=O)N1CC(N2CCN(C(=O)c3nccs3)CC2)C1 [Cpd 786] | Kd (mutant MGL; [4]): 0.665 µM
24 | 35 | Cc1c(C(=O)N2CC(N3CCN(C(=O)c4nccs4)CC3)C2)[nH]c2ccc(-c3cccnc3F)cc12 [Cpd 1149, 5-(2-Fluoropyridin-3-yl)-3-methyl-2-({3-[4-(1,3-thiazol-2-ylcarbonyl)piperazin-1-yl]azetidin-1-yl}carbonyl)-1H-indole] | Kd (mutant MGL; [3]): 0.004 µM
25 | 29 | Cn1cc(-c2cccc(F)c2)c2ccc(C(=O)N3CC(N4CCN(C(=O)c5nccs5)CC4)C3)cc21 [Cpd 1142] | Kd (mutant MGL; [6]): 0.001 µM
26 | 104 | O=C(c1ccc2c(c1)[nH]c(=O)n2C1CCC(F)(F)CC1)N1CC(N2CCN(C(=O)c3nccs3)CC2)C1 [Cpd 932] | Kd (mutant MGL; [5]): 0.008 µM
27 | 193 | O=C(c1cc2cc(-c3ccccc3)cnc2o1)N1CC(N2CCN(C(=O)c3nccs3)CC2)C1 [Cpd 1209] | Kd (mutant MGL; [3]): 0.942 µM
28 | 123 | O=C(c1ccc2c(=O)c3ccccc3oc2c1)N1CC(N2CCN(C(=O)c3nccs3)CC2)C1 [Cpd 710] | Kd (mutant MGL; [4]): 0.197 µM
29 | 9 | O=C(c1ccc(OCc2ccc3ccccc3n2)cc1)N1CC(N2CCN(C(=O)c3nccs3)CC2)C1 [Cpd 967] | Kd (mutant MGL; [2]): 0.044 µM
30 | 51 | O=C(c1ccc2nc(-c3ccccn3)sc2c1)N1CC(N2CCN(C(=O)c3nccs3)CC2)C1 [Cpd 1165] | Kd (mutant MGL; [3]): 0.09 µM
31 | 862 | O=C(c1nccs1)N1CCN(C2CN(C(=O)c3ccccc3NCc3ccccc3)C2)CC1 [Cpd 775] | Kd (mutant MGL; [2]): 0.333 µM
32 | 1460 | O=C(c1cc2ccc(Br)cc2[nH]1)N1CC(N2CCN(C(=O)c3nccs3)CC2)C1 [Cpd 792] | Kd (mutant MGL; [4]): 0.973 µM

From patent publication US8362000B2, “Azetidinyl diamides as monoacylglycerol lipase inhibitors” (Janssen Pharmaceutica NV, priority 2009, dated 2013)
